From patent US9920010B2, “CXCR7 receptor modulators” (IDORSIA PHARMACEUTICALS LTD, priority 2013, dated 2018) come the findings set out here.

Each structure is given as a SMILES string.

The target in the test is T1, CXCR7 (Homo sapiens, UniProt P25106).
T1 construct: host or cells: CHO-K1 (PathHunter CHO-K1 CXCR7 b-arrestin cell line, stably transfected)
Put plainly: PathHunter CHO-K1 CXCR7 b-arrestin recruitment assay (CXCR7 agonistic activity). Format: cell-based. The note with it: PathHunter CHO-K1 CXCR7 b-arrestin cell line. The gist of the method: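 Stable CHO-K1 line with C-terminally ProLink-tagged CXCR7 and β-arrestin 2–EA fusion; β-arrestin recruitment restores β-gal activity, read by chemiluminescence after 1 h RT detection. Cells seeded 24 h, starved in OPTIMEM 3–4 h, exposed to compounds 90 min at 37 °C in HBSS/HEPES/BSA. Geometric-mean EC50 from repeated measurements.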

T1 sequence (P25106 whole entry): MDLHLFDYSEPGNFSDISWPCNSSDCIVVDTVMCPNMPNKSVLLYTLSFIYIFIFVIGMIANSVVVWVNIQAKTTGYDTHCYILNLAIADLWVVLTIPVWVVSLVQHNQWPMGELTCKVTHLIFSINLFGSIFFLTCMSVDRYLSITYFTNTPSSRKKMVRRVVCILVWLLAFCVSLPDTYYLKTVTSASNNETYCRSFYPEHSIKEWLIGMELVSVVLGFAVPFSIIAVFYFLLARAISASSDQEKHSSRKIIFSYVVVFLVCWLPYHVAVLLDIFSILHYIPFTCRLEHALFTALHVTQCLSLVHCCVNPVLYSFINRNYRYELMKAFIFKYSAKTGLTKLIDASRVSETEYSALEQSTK
T1 sequence (P32121 whole entry partner): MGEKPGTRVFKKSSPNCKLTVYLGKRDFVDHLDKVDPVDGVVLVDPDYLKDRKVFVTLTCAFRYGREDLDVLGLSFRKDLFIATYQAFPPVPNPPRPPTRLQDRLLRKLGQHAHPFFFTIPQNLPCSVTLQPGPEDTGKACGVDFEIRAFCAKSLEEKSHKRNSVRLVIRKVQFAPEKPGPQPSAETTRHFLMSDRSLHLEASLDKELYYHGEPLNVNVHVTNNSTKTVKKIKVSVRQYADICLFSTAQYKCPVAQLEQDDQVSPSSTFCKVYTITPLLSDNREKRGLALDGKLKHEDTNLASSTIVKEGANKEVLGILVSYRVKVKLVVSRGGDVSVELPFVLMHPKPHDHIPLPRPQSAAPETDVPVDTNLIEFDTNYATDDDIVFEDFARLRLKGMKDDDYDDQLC

On to `O=C(Cc1cccc2c1CCN(CC1CC1)C2)N(CCN1CCCC1)Cc1ccccc1` [Example 3, N-Benzyl-2-(2-cyclopropylmethyl-1,2,3,4-tetrahydro-isoquinolin-5-yl)-N-(2-pyrrolidin-1-yl-ethyl)-acetamide], for which the EC50 (usually the concentration at which the effect is half-maximal) worked out at 42 nM.

For `CCN1CCc2cccc(NCC(=O)N(CCN(C)C)Cc3ccc(F)cn3)c2C1` [compound 529], the response was half-maximal at 174 nM (EC50).

`CNCCN(Cc1ncccc1C(F)(F)F)C(=O)CNc1cccc2c1CCN(C(=O)NC(C)(C)C)C2` [compound 432, 5-({[(2-Methylamino-ethyl)-(3-trifluoromethyl-pyridin-2-ylmethyl)-carbamoyl]-methyl}-amino)-3,4-dihydro-1H-isoquinoline-2-carboxylic acid tert-butylamide] had an EC50 of 42 nM.

`CC(C)CN1CCc2c(cccc2OCC(=O)N(CCN(C)C)Cc2ccccc2)C1` [compound 168, N-Benzyl-N-(2-dimethylamino-ethyl)-2-(2-isobutyl-1,2,3,4-tetrahydro-isoquinolin-5-yloxy)-acetamide] registered an EC50 of 20 nM.

`CCN1CCc2cccc(OC(C)C(=O)N(CCN(C)C)Cc3ccccc3C(F)(F)F)c2C1` (stereo not drawn) [compound 548] came in with an EC50 of 133 nM.

In turn, `CCN1CCc2c(/C=C/C(=O)N(CCN(C)C)Cc3ccccc3C(F)(F)F)cccc2C1` [compound 149, (E)-N-(2-Dimethylamino-ethyl)-3-(2-ethyl-1,2,3,4-tetrahydro-isoquinolin-5-yl)-N-(2-trifluoromethyl-benzyl)-acrylamide] displayed an EC50 of 0.6 nM.

`CCN1CCc2cccc(NCC(=O)N(CCN(C)C)Cc3cc(C)on3)c2C1` [compound 535] yielded an EC50 of 355 nM.

For the compound `CN(C)CCN(Cc1ccccc1)C(=O)COc1cccc2c1CCN(CC1CC1)C2` [compound 166, N-Benzyl-2-(2-cyclopropylmethyl-1,2,3,4-tetrahydro-isoquinolin-5-yloxy)-N-(2-dimethylamino-ethyl)-acetamide], the EC50 worked out at 6 nM.

Take `CN(C)CCN(Cc1ccccc1C(F)(F)F)C(=O)CNc1cccc2c1CCN(c1ccccc1)C2` [Example 373, N-(2-Dimethylamino-ethyl)-2-(2-phenyl-1,2,3,4-tetrahydro-isoquinolin-5-ylamino)-N-(2-trifluoromethyl-benzyl)-acetamide]: the EC50 was 67 nM.

In turn, `COCCN1CCc2c(/C=C/C(=O)N(Cc3ccccc3C(F)(F)F)CC3(C)COC3)cccc2C1` [Example 324, (E)-3-[2-(2-Methoxy-ethyl)-1,2,3,4-tetrahydro-isoquinolin-5-yl]-N-(3-methyl-oxetan-3-ylmethyl)-N-(2-trifluoromethyl-benzyl)-acrylamide] returned an EC50 of 243 nM.

`CC(C)CC(=O)N1CCc2c(cccc2NCC(=O)N(CCN(C)C)Cc2ccccc2)C1` [compound 119] showed an EC50 of 87 nM.

Take `Cc1ccccc1CCN(CCN(C)C)C(=O)CNc1cccc2c1CCN(CC1CC1)C2` [Example 40, 2-(2-Cyclopropylmethyl-1,2,3,4-tetrahydro-isoquinolin-5-ylamino)-N-(2-dimethylamino-ethyl)-N-(2-o-tolyl-ethyl)-acetamide]: the EC50 was 44 nM.

`COC(=O)N1CCc2c(cccc2OCC(=O)N(CCN(C)C)Cc2ccccc2)C1` [Example 167, 5-{[Benzyl-(2-dimethylamino-ethyl)-carbamoyl]-methoxy}-3,4-dihydro-1H-isoquinoline-2-carboxylic acid methyl ester] yielded an EC50 of 39 nM.

Compound `NS(=O)(=O)CCN(Cc1ccccc1C(F)(F)F)C(=O)CNc1cccc2c1CCN(CC1CC1)C2` [Example 233, 2-(2-Cyclopropylmethyl-1,2,3,4-tetrahydro-isoquinolin-5-ylamino)-N-(2-sulfamoyl-ethyl)-N-(2-trifluoromethyl-benzyl)-acetamide] returned a half-maximal effective concentration (EC50) of 72 nM.

The compound `CN(CCN(Cc1ccccc1C(F)(F)F)C(=O)CNc1cccc2c1CCN(CC1CC1)C2)C1CC1` [Example 220, N-[2-(Cyclopropyl-methyl-amino)-ethyl]-2-(2-cyclopropylmethyl-1,2,3,4-tetrahydro-isoquinolin-5-ylamino)-N-(2-trifluoromethyl-benzyl)-acetamide] gave an EC50 of 3 nM.
